Reference: ChEMBL document CHEMBL1201862, “PubChem BioAssay data set” (2004)
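Interpolation was linear, between the two tested concentrations surrounding the appropriate level; five concentrations were tested over 48 hours in 96-well plates. GI50 marks 50% less growth.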 The source made the active and inactive calls. Rule as the data show it: active = GI50 up to about 1.1 µM and inactive = higher.

Experiments:
Experiment in all cases: inhibition of tumour cell growth, NCI panel, 48 h
MOLT-4 = test system: MOLT-4
CAKI-1 = test system: CAKI-1
TK-10 = test system: TK-10
CCRF-CEM = test system: CCRF-CEM
RPMI-8226 = test system: RPMI-8226
HT-29 = test system: HT-29
NCI-H226 = test system: NCI-H226
NCI-H522 = test system: NCI-H522
DU-145 = test system: DU-145
SK-MEL-2 = test system: SK-MEL-2
NCI-H460 = test system: NCI-H460
SF-295 = test system: SF-295
SNB-75 = test system: SNB-75
HOP-62 = test system: HOP-62
U-251 = test system: U-251
MDA-N = test system: MDA-N
OVCAR-8 = test system: OVCAR-8
NCI/ADR-RES = test system: NCI/ADR-RES
OVCAR-5 = test system: OVCAR-5
HL-60 = test system: HL-60
HCT-15 = test system: HCT-15
UACC-62 = test system: UACC-62
SK-MEL-28 = test system: SK-MEL-28
Malme-3M = test system: Malme-3M
MCF7 = test system: MCF7
OVCAR-4 = test system: OVCAR-4
NCI-H23 = test system: NCI-H23
SNB-19 = test system: SNB-19
SW-620 = test system: SW-620
T47D = test system: T47D
SF-539 = test system: SF-539
SF-268 = test system: SF-268
SN12C = test system: SN12C
MDA-MB-231 = test system: MDA-MB-231
RXF 393 = test system: RXF 393
HCC 2998 = test system: HCC 2998
SK-MEL-5 = test system: SK-MEL-5
HCT-116 = test system: HCT-116
OVCAR-3 = test system: OVCAR-3
ACHN = test system: ACHN
A549 = test system: A549
SR = test system: SR
KM12 = test system: KM12
MDA-MB-435 = test system: MDA-MB-435
EKVX = test system: EKVX
UO-31 = test system: UO-31
Hs-578T = test system: Hs-578T
COLO 205 = test system: COLO 205
PC-3 = test system: PC-3
IGROV-1 = test system: IGROV-1
SK-OV-3 = test system: SK-OV-3
M14 = test system: M14
LOX IMVI = test system: LOX IMVI
A498 = test system: A498
786-0 = test system: 786-0
UACC-257 = test system: UACC-257
K562 = test system: K562
HOP-92 = test system: HOP-92

Measured: GI50

CON(C)c1nc(N)c(C#N)c(C#N)c1C#N
> 10 µM: HCT-15
inactive: MOLT-4 > 10 µM | CAKI-1 > 10 µM | TK-10 > 10 µM | CCRF-CEM 4.02 µM | RPMI-8226 > 10 µM | HT-29 > 10 µM | NCI-H226 > 10 µM | NCI-H522 > 10 µM | DU-145 > 10 µM | SK-MEL-2 > 10 µM | NCI-H460 > 10 µM | SF-295 > 10 µM | SNB-75 > 10 µM | HOP-62 > 10 µM | U-251 > 10 µM | MDA-N > 10 µM | OVCAR-8 > 10 µM | NCI/ADR-RES > 10 µM | OVCAR-5 > 10 µM | HL-60 4.16 µM | UACC-62 > 10 µM | SK-MEL-28 > 10 µM | Malme-3M > 10 µM | MCF7 > 10 µM | OVCAR-4 > 10 µM | NCI-H23 > 10 µM | SNB-19 > 10 µM | SW-620 > 10 µM | T47D > 10 µM | SF-539 > 10 µM | SF-268 > 10 µM | SN12C > 10 µM | MDA-MB-231 > 10 µM | RXF 393 > 10 µM | HCC 2998 > 10 µM | SK-MEL-5 > 10 µM | HCT-116 > 10 µM | OVCAR-3 2.28 µM | ACHN > 10 µM | A549 > 10 µM | SR > 10 µM | KM12 > 10 µM | MDA-MB-435 > 10 µM | EKVX > 10 µM | UO-31 > 10 µM | Hs-578T > 10 µM | COLO 205 > 10 µM | PC-3 > 10 µM | IGROV-1 > 10 µM | SK-OV-3 > 10 µM | M14 > 10 µM | LOX IMVI > 10 µM | A498 > 10 µM

CC1=CC(=O)CC(C)(C)C1/C=C/C(C)=C/C=C/C(C)=C/C=C/C=C(C)/C=C/C=C(C)/C=C/C1C(C)=CC(=O)CC1(C)C (stereo not given)
inactive: MOLT-4 50.1 µM | CAKI-1 58.7 µM | TK-10 77.1 µM | CCRF-CEM 21.6 µM | RPMI-8226 25.2 µM | HT-29 35.7 µM | NCI-H226 > 100 µM | NCI-H522 20.8 µM | DU-145 > 100 µM | SK-MEL-2 > 100 µM | NCI-H460 86.1 µM | SF-295 92 µM | HOP-62 42 µM | U-251 38.7 µM | MDA-N 35.1 µM | 786-0 34.4 µM | OVCAR-8 20.1 µM | NCI/ADR-RES 72.6 µM | OVCAR-5 78.5 µM | HL-60 38.5 µM | UACC-257 61.2 µM | SK-MEL-28 > 100 µM | MCF7 29.2 µM | OVCAR-4 41.1 µM | NCI-H23 36.3 µM | SW-620 23.2 µM | T47D > 100 µM | SF-539 45.5 µM | SF-268 44.4 µM | MDA-MB-231 > 100 µM | RXF 393 > 100 µM | K562 37.2 µM | HCC 2998 53.1 µM | SK-MEL-5 45.8 µM | HCT-116 20.2 µM | OVCAR-3 30.5 µM | ACHN 30 µM | SR 66.1 µM | KM12 37.2 µM | HOP-92 23.3 µM | MDA-MB-435 23.4 µM | EKVX 92.9 µM | UO-31 67.5 µM | Hs-578T 30.8 µM | PC-3 41.1 µM | IGROV-1 31.3 µM | SK-OV-3 > 100 µM | M14 40.4 µM | LOX IMVI 29.3 µM | A498 > 100 µM
27 µM: HCT-15
